Experimental data: ChEMBL document CHEMBL1143799, “Synthesis and primary cytotoxicity evaluation of new imidazo[2,1-b]thiazole derivatives” (2007)

Experiments:
Assay type in all cases: functional
RXF 393 = test: Growth inhibition of human RXF393 cells after 48 hrs by SRB protein assay; details: RXF 393, 48 h
SNB-19 = test: Growth inhibition of human SNB19 cells after 48 hrs by SRB protein assay; details: SNB-19, 48 h
SF-268 = test: Growth inhibition of human SF268 cells after 48 hrs by SRB protein assay; details: SF-268, 48 h
SK-MEL-5 = test: Growth inhibition of human SK-MEL-5 cells after 48 hrs by SRB protein assay; details: SK-MEL-5, 48 h
NCI-H322M = test: Growth inhibition of human NCI-H322M cells after 48 hrs by SRB protein assay
HCT-116 = test: Growth inhibition of human HCT116 cells after 48 hrs by SRB protein assay; details: HCT-116, 48 h
T47D = test: Growth inhibition of human T47D cells after 48 hrs by SRB protein assay
U-251 = test: Growth inhibition human U251 of cells after 48 hrs by SRB protein assay; details: U-251, 48 h
SF-539 = test: Growth inhibition of human SF539 cells after 48 hrs by SRB protein assay; details: SF-539, 48 h
DU-145 = test: Growth inhibition of human DU145 cells after 48 hrs by SRB protein assay; details: DU-145, 48 h
SNB-75 = test: Growth inhibition of human SNB75 cells after 48 hrs by SRB protein assay; details: SNB-75, 48 h
M14 = test: Growth inhibition of human M14 cells after 48 hrs by SRB protein assay; details: M14, 48 h
UACC-257 = test: Growth inhibition of human UACC257 cells after 48 hrs by SRB protein assay; details: UACC-257, 48 h
LOX IMVI = test: Growth inhibition of human LOX IMVI cells after 48 hrs by SRB protein assay
HCC 2998 = test: Growth inhibition of human HCC2998 cells after 48 hrs by SRB protein assay; details: HCC 2998, 48 h
SK-OV-3 = test: Growth inhibition of human SK-OV-3 cells after 48 hrs by SRB protein assay; details: SK-OV-3, 48 h
UO-31 = test: Growth inhibition of human UO31 cells after 48 hrs by SRB protein assay; details: UO-31, 48 h
EKVX = test: Growth inhibition of human EKVX cells after 48 hrs by SRB protein assay
[1] = Growth inhibition of human 786O cells after 48 hrs by SRB protein assay; details: 786-0, 48 h
ACHN = test: Growth inhibition of human ACHN cells after 48 hrs by SRB protein assay
HT-29 = test: Growth inhibition of human HT29 cells after 48 hrs by SRB protein assay; details: HT-29, 48 h
PC-3 = test: Growth inhibition of human PC3 cells after 48 hrs by SRB protein assay; details: PC-3, 48 h
HOP-62 = test: Growth inhibition of human HOP62 cells after 48 hrs by SRB protein assay; details: HOP-62, 48 h
MDA-MB-231 = test: Growth inhibition of MDA-MB-231 cells after 48 hrs by SRB protein assay; details: Homo sapiens, MDA-MB-231, 48 h
Hs-578T = test: Growth inhibition of human HS578T cells after 48 hrs by SRB protein assay
COLO 205 = test: Growth inhibition of human COLO205 cells after 48 hrs by SRB protein assay; details: COLO 205, 48 h
OVCAR-8 = test: Growth inhibition of human OVCAR8 cells after 48 hrs by SRB protein assay; details: OVCAR-8, 48 h
SN12C = test: Growth inhibition of human SN12C cells after 48 hrs by SRB protein assay
SW-620 = test: Growth inhibition of human SW620 cells after 48 hrs by SRB protein assay; details: SW-620, 48 h
OVCAR-3 = test: Growth inhibition of human OVCAR-3 cells after 48 hrs by SRB protein assay; details: OVCAR-3, 48 h
HCT-15 = test: Growth inhibition of human HCT15 cells after 48 hrs by SRB protein assay; details: HCT-15, 48 h
CCRF-CEM = test: Growth inhibition of human CCRF-CEM cells after 48 hrs by SRB protein assay
OVCAR-5 = test: Growth inhibition of human OVCAR5 cells after 48 hrs by SRB protein assay; details: OVCAR-5, 48 h
A549 = test: Growth inhibition of human A549 cells after 48 hrs by SRB protein assay; details: A549, 48 h
SK-MEL-28 = test: Growth inhibition of human SK-MEL-28 cells after 48 hrs by SRB protein assay; details: SK-MEL-28, 48 h
CAKI-1 = test: Growth inhibition of human CAKI1 cells after 48 hrs by SRB protein assay; details: CAKI-1, 48 h
NCI-H460 = test: Growth inhibition of human NCI-H460 cells after 48 hrs by SRB protein assay; details: NCI-H460, 48 h
MCF7 = test: Growth inhibition of human MCF7 cells after 48 hrs by SRB protein assay; details: MCF7, 48 h
BT-549 = test: Growth inhibition of human BT549 cells after 48 hrs by SRB protein assay; details: BT-549, 48 h
UACC-62 = test: Growth inhibition of human UACC62 cells after 48 hrs by SRB protein assay; details: UACC-62, 48 h

For `O=C(Cc1csc2nc(-c3ccc(Br)cc3)cn12)N/N=C/c1ccccc1`, the GI50 (RXF 393) was 14.5 µM, the TGI (RXF 393; read-out: Log TGI (converted)) was 38.9 µM and the GI50 (SNB-19) was 43.7 µM. It also gave a TGI (SNB-19; read-out: Log TGI (converted)) of over 100 µM, a GI50 (SF-268) of over 100 µM and a TGI (SF-268; read-out: Log TGI (converted)) of over 100 µM. It also gave a GI50 (SK-MEL-5) of 5.62 µM, a TGI (SK-MEL-5; read-out: Log TGI (converted)) of 26.9 µM and a GI50 (NCI-H322M) of 19.1 µM. For the same molecule, the TGI (NCI-H322M; read-out: Log TGI (converted)) was 93.3 µM, the GI50 (HCT-116) was 9.33 µM and the TGI (HCT-116; read-out: Log TGI (converted)) was 21.4 µM. It also gave a GI50 (T47D) of 37.2 µM, a TGI (T47D; read-out: Log TGI (converted)) of over 100 µM and a GI50 (U-251) of 12.9 µM. For the same molecule, the TGI (U-251; read-out: Log TGI (converted)) was 32.4 µM, the GI50 (SF-539) was 16.2 µM and the TGI (SF-539; read-out: Log TGI (converted)) was 39.8 µM. It also gave a GI50 (DU-145) of 14.5 µM, a TGI (DU-145; read-out: Log TGI (converted)) of 44.7 µM and a GI50 (SNB-75) of 31.6 µM. The TGI (SNB-75; read-out: Log TGI (converted)) was 89.1 µM, the GI50 (M14) was 20.9 µM and the TGI (M14; read-out: Log TGI (converted)) was over 100 µM. For the same molecule, the GI50 (UACC-257) was 6.17 µM, the TGI (UACC-257; read-out: Log TGI (converted)) was 31.6 µM and the GI50 (LOX IMVI) was 12.3 µM. It also gave a TGI (LOX IMVI; read-out: Log TGI (converted)) of 91.2 µM, a GI50 (HCC 2998) of 13.2 µM and a TGI (HCC 2998; read-out: Log TGI (converted)) of 49 µM. It also gave a GI50 (SK-OV-3) of 66.1 µM, a TGI (SK-OV-3; read-out: Log TGI (converted)) of over 100 µM and a GI50 (UO-31) of 57.5 µM. It also gave a TGI (UO-31; read-out: Log TGI (converted)) of over 100 µM, a GI50 (EKVX) of 6.92 µM and a TGI (EKVX; read-out: Log TGI (converted)) of 52.5 µM. It also gave a GI50 [1] of 27.5 µM, a TGI ([1]; read-out: Log TGI (converted)) of over 100 µM and a GI50 (ACHN) of 10.7 µM. It also gave a TGI (ACHN; read-out: Log TGI (converted)) of 25.7 µM, a GI50 (HT-29) of 43.7 µM and a TGI (HT-29; read-out: Log TGI (converted)) of over 100 µM. For the same molecule, the GI50 (PC-3) was 20.4 µM, the TGI (PC-3; read-out: Log TGI (converted)) was over 100 µM and the GI50 (HOP-62) was 15.1 µM. It also gave a TGI (HOP-62; read-out: Log TGI (converted)) of 39.8 µM, a GI50 (MDA-MB-231) of 12.9 µM and a TGI (MDA-MB-231; read-out: Log TGI (converted)) of 57.5 µM. It also gave a GI50 (Hs-578T) of 16.2 µM, a TGI (Hs-578T; read-out: Log TGI (converted)) of 51.3 µM and a GI50 (COLO 205) of 66.1 µM. The TGI (COLO 205; read-out: Log TGI (converted)) was over 100 µM, the GI50 (OVCAR-8) was 2.34 µM and the TGI (OVCAR-8; read-out: Log TGI (converted)) was 20.4 µM. It also gave a GI50 (SN12C) of 13.2 µM, a TGI (SN12C; read-out: Log TGI (converted)) of 39.8 µM and a GI50 (SW-620) of 18.6 µM. For the same molecule, the TGI (SW-620; read-out: Log TGI (converted)) was 63.1 µM, the GI50 (OVCAR-3) was 24 µM and the TGI (OVCAR-3; read-out: Log TGI (converted)) was 46.8 µM. The GI50 (HCT-15) was 16.2 µM, the TGI (HCT-15; read-out: Log TGI (converted)) was over 100 µM and the GI50 (CCRF-CEM) was 17.4 µM. The TGI (CCRF-CEM; read-out: Log TGI (converted)) was over 100 µM, the GI50 (OVCAR-5) was 30.9 µM and the TGI (OVCAR-5; read-out: Log TGI (converted)) was over 100 µM. It also gave a GI50 (A549) of 13.5 µM, a TGI (A549; read-out: Log TGI (converted)) of 40.7 µM and a GI50 (SK-MEL-28) of over 100 µM. For the same molecule, the TGI (SK-MEL-28; read-out: Log TGI (converted)) was over 100 µM, the GI50 (CAKI-1) was 30.2 µM and the TGI (CAKI-1; read-out: Log TGI (converted)) was 81.3 µM. The GI50 (NCI-H460) was 52.5 µM, the TGI (NCI-H460; read-out: Log TGI (converted)) was over 100 µM and the GI50 (MCF7) was 75.9 µM. It also gave a TGI (MCF7; read-out: Log TGI (converted)) of over 100 µM, a GI50 (BT-549) of 12.9 µM and a TGI (BT-549; read-out: Log TGI (converted)) of 49 µM. The GI50 (UACC-62) was 11.5 µM and the TGI (UACC-62; read-out: Log TGI (converted)) was 28.2 µM.
